The results in this text go back to US8946234B2, “Halogen-substituted compounds” (Bayer CropScience AG, priority 2008, dated 2015).

The nature of one data set: log P from HPLC-MS, no method note printed. The conditions noted are these: method not given. Format: physicochemical.
On to `CCOC(=O)c1c(I)c(C2CC2)nn1C` [Ethyl 3-cyclopropyl-4-iodo-1-methyl-1H-pyrazole-5-carboxylate], for which the chromatographic logP (usually lipophilicity estimated from chromatographic retention) came out at 3.56.

Compound `O=C(O)c1sc(C(F)(F)C(F)(F)F)nc1C(F)(F)F` [2-(Pentafluoroethyl)-4-(trifluoromethyl)-1,3-thiazole-5-carboxylic acid] gave a chromatographic logP of 2.06.

The compound `Cc1nc(C(N)=O)c(C(F)(F)F)c(C(F)(F)C(F)(F)F)n1` [2-Methyl-6-(pentafluoroethyl)-5-(trifluoromethyl)pyrimidine-4-carboxamide] displayed a chromatographic logP of 2.33.

The compound `O=C(O)c1cnc(C(F)(F)C(F)(F)F)nc1C(F)(F)C(F)(F)F` [2,4-Bis(pentafluoroethyl)pyrimidine-5-carboxylic acid] gave a chromatographic logP of 2.24.

In turn, `Cn1nc(C(C)(C)F)c(C(F)(F)F)c1C(=O)O` [3-(2-Fluoropropan-2-yl)-1-methyl-4-(trifluoromethyl)-1H-pyrazole-5-carboxylic acid] displayed a chromatographic logP of 1.43.

`COC(=O)c1c(I)c(OCC(F)(F)F)nn1C` [Methyl 4-iodo-1-methyl-3-(2,2,2-trifluoroethoxy)-1H-pyrazole-5-carboxylate]: the chromatographic logP turned out to be 3.17.

As to `Cn1nc(C2CC2)c(Br)c1C(=O)O` [4-Bromo-3-cyclopropyl-1-methyl-1H-pyrazole-5-carboxylic acid], the chromatographic logP was found to be 1.76.

Take `Cn1nc(OCC(F)(F)F)cc1C(=O)O` [1-Methyl-3-(2,2,2-trifluoroethoxy)-1H-pyrazole-5-carboxylic acid]: the chromatographic logP worked out at 1.65.

The compound `CCOC(=O)c1c(C(F)(F)F)c(C(F)F)nn1C` [Ethyl 3-(difluoromethyl)-1-methyl-4-(trifluoromethyl)-1H-pyrazole-5-carboxylate] displayed a chromatographic logP of 3.05.

In the case of `Cn1nc(OCC(F)(F)F)c(F)c1C(=O)O` [4-Fluoro-1-methyl-3-(2,2,2-trifluoroethoxy)-1H-pyrazole-5-carboxylic acid], the chromatographic logP turned out to be 1.83.

`Cn1nc(OC(F)F)c(I)c1C(=O)O` [4-Iodo-3-(difluoromethoxy)-1-methyl-1H-pyrazole-5-carboxylic acid] registered a chromatographic logP of 1.64.

`Cn1nc(OC(F)F)c(Cl)c1C(=O)O` [4-Chloro-3-(difluoromethoxy)-1-methyl-1H-pyrazole-5-carboxylic acid]: the chromatographic logP worked out at 1.5.

Turning to `Cn1nc(OCC(F)(F)F)c(Br)c1C(=O)O` [4-Bromo-1-methyl-3-(2,2,2-trifluoroethoxy)-1H-pyrazole-5-carboxylic acid], the chromatographic logP was 2.03.

`COC(=O)c1cc(OCC(F)(F)F)nn1C` [Methyl 1-methyl-3-(2,2,2-trifluoroethoxy)-1H-pyrazole-5-carboxylate] returned a chromatographic logP of 2.61.

Another data set in a line: logP by HPLC on a C18 phase inversion column, EEC Directive 79/831 Annex V.A8, method b) (HP1100, 5-95% acetonitrile in 1.70 min). Format: physicochemical. The conditions noted are these: HPLC method b). The protocol:
^b) Note regarding the determination of the log P values and mass detection: The log P values given were determined in accordance with EEC Directive 79/831 Annex V.A8 by HPLC (High Performance Liquid Chromatography) on a phase inversion column (C18). HP1100; 50*4.6 Zorbax Eclipse Plus C18 1.8 micron; eluent A: acetonitrile (0.1% formic acid); eluent B: water (0.08% formic acid); linear gradient from 5% acetonitrile to 95% acetonitrile in 1.70 min, then 95% acetonitrile for a further 1.00 min; oven temperature 55° C.; flow: 2.0 ml/min. The mass detection is carried out via the mass detector Micromass ZQ2000 from Waters.
Regarding `Cn1nc(C(F)(F)C(F)(F)F)c(C(F)(F)F)c1C(=O)Nc1ccc(Cl)c(C(=O)NCC#N)c1` [Ik-48], the logP is recorded as 2.93^b).

As to `Cc1c(C(F)(F)C(F)(F)F)nn(C)c1C(=O)Nc1ccc(Cl)c(C(=O)NCc2ccccc2)c1` [Ik-271], the logP is on record as 3.42^b).

Consider `C[C@@H](NC(=O)c1cc(NC(=O)c2c(C(F)(F)F)c(C(F)(F)C(F)(F)F)nn2C)ccc1Cl)C(F)(F)F` [Ik-307], for which the logP is on record as 3.78^b).

For the compound `Cn1nc(C(F)(F)C(F)(F)F)c(C(F)(F)F)c1C(=O)Nc1ccc(Cl)c(C(=O)NC2CCOCC2)c1` [Ik-285], the logP was 3.06^b).

For `Cn1nc(C(F)(F)C(F)(F)F)c(C(F)(F)F)c1C(=O)Nc1ccc(Cl)c(C(=O)NCc2ccccc2F)c1` [Ik-52], the logP is recorded as 3.73^b).

On to `Cn1nc(C(F)(F)C(F)(F)F)c(C(F)(F)F)c1C(=O)Nc1ccc(Cl)c(C(=O)NC(C)(C)CS(C)(=O)=O)c1` [Ik-301], for which the logP was 3.02^b).

On to `Cn1nc(C(F)(F)C(F)(F)F)c(C(F)(F)F)c1C(=O)Nc1ccc(Cl)c(C(=O)NCC(F)(F)C(F)(F)F)c1` [Ik-302], for which the logP is listed as 3.78^b).

Turning to `C[C@H](NC(=O)c1cc(NC(=O)c2c(C(F)(F)F)c(C(F)(F)C(F)(F)F)nn2C)ccc1Cl)C(F)(F)F` [Ik-294], the logP is given as 3.63^b).

On to `CC(O)CNC(=O)c1cc(NC(=O)c2c(C(F)(F)F)c(C(F)(F)C(F)(F)F)nn2C)ccc1Cl` (centres unmarked) [Ik-33], for which the logP is 2.65^b).

On to `CCC1CC1NC(=O)c1cc(NC(=O)c2c(C(F)(F)F)c(C(F)(F)C(F)(F)F)nn2C)ccc1Cl` (centres unmarked) [Ik-286], for which the logP was 3.84^b).

Regarding `Cn1nc(C(F)(F)C(F)(F)F)c(C(F)(F)F)c1C(=O)Nc1ccc(Cl)c(C(=O)NC2COC2)c1` [Ik-32], the logP is recorded as 2.76^b).

For `Cc1ccccc1CNC(=O)c1cc(NC(=O)c2c(C(F)(F)F)c(C(F)(F)C(F)(F)F)nn2C)ccc1Cl` [Ik-305], the logP is listed as 3.89^b).

Regarding `Cn1nc(C(F)(F)C(F)(F)F)c(C(F)(F)F)c1C(=O)Nc1ccc(Cl)c(C(=O)NC(C2CC2)C2CC2)c1` [Ik-61], the logP was 4.00^b).

Take `Cn1nc(C(F)(F)C(F)(F)F)c(C(F)(F)F)c1C(=O)Nc1ccc(Cl)c(C(=O)NCc2ccc(F)c(F)c2)c1` [Ik-309]: the logP is 3.94^b).

On to `Cn1nc(C(F)(F)C(F)(F)F)c(C(F)(F)F)c1C(=O)Nc1ccc(Cl)c(C(=O)NCc2ccc(F)cc2)c1` [Ik-312], for which the logP is 3.73^b).

Turning to `C=C(C)CNC(=O)c1cc(NC(=O)c2c(C(F)(F)F)c(C(F)(F)C(F)(F)F)nn2C)ccc1Cl` [Ik-50], the logP is 3.53^b).

Consider `CC(C)[C@H](NC(=O)c1cc(NC(=O)c2c(C(F)(F)F)c(C(F)(F)C(F)(F)F)nn2C)ccc1Cl)C(F)(F)F` [Ik-310], for which the logP is on record as 3.89^b).

For the compound `Cn1nc(C(F)(F)C(F)(F)F)c(C(F)(F)F)c1C(=O)Nc1ccc(Cl)c(C(=O)NCc2ncn[nH]2)c1` [Ik-29], the logP is recorded as 2.31^b).

For `CCc1c(C(F)(F)C(F)(F)F)nn(C)c1C(=O)Nc1ccc(Cl)c(C(=O)NCc2ccccc2)c1` [Ik-272], the logP is 3.68^b).

In the case of `CSCC(C)(C)NC(=O)c1cc(NC(=O)c2c(C(F)(F)F)c(C(F)(F)C(F)(F)F)nn2C)ccc1Cl` [Ik-289], the logP is reported as 4.05^b).

As for `Cn1nc(C(F)(F)C(F)(F)F)c(C(F)(F)F)c1C(=O)Nc1ccc(Cl)c(C(=O)NC2CC2F)c1` (centres unmarked) [Ik-311], the logP is 3.28^b).

Regarding `CC(NC(=O)c1cc(NC(=O)c2c(C(F)(F)F)c(C(F)(F)C(F)(F)F)nn2C)ccc1Cl)c1cccc(F)c1` (centres unmarked) [Ik-303], the logP was 3.89^b).

With `CCCNC(=O)c1cc(NC(=O)c2c(C(F)(F)F)c(C(F)(F)C(F)(F)F)nn2C)ccc1Cl` [Ik-30], the logP is on record as 3.23^b).

Regarding `Cc1ccc(CNC(=O)c2cc(NC(=O)c3c(C(F)(F)F)c(C(F)(F)C(F)(F)F)nn3C)ccc2Cl)cc1` [Ik-306], the logP is recorded as 3.94^b).

For the compound `Cn1nc(C(F)(F)C(F)(F)F)c(C(F)(F)F)c1C(=O)Nc1ccc(Cl)c(C(=O)NCc2cccc(F)c2)c1` [Ik-49], the logP is recorded as 3.78^b).

With `CC(NC(=O)c1cc(NC(=O)c2c(C(F)(F)F)c(C(F)(F)C(F)(F)F)nn2C)ccc1Cl)c1ccccc1F` (centres unmarked) [Ik-284], the logP is 4.00^b).

For `Cc1csc(C(NC(=O)c2cc(NC(=O)c3c(C(F)(F)F)c(C(F)(F)C(F)(F)F)nn3C)ccc2Cl)C(F)(F)F)n1` (centres unmarked) [Ik-277], the logP is recorded as 4.00^b).

Turning to `Cn1nc(C(F)(F)C(F)(F)F)c(C(F)(F)F)c1C(=O)Nc1ccc(Cl)c(C(=O)NC2C=CS(=O)(=O)C2)c1` (centres unmarked) [Ik-278], the logP was 2.80^b).

With `Cn1nc(C(F)(F)C(F)(F)F)c(C(F)(F)F)c1C(=O)Nc1ccc(Cl)c(C(=O)NCc2ccc(Cl)cc2)c1` [Ik-283], the logP is 4.05^b).

For `Cn1nc(C(F)(F)C(F)(F)F)c(C(F)(F)F)c1C(=O)Nc1ccc(Cl)c(C(=O)NCc2cc(F)ccc2F)c1` [Ik-54], the logP is reported as 3.84^b).

With `Cn1nc(C(F)(F)C(F)(F)F)c(C(F)(F)F)c1C(=O)Nc1ccc(Cl)c(C(=O)NC(C)(C)C#N)c1` [Ik-274], the logP is given as 3.37^b).

As to `Cn1nc(C(F)(F)C(F)(F)F)c(C(F)(F)F)c1C(=O)Nc1ccc(Cl)c(C(=O)NC(C)(C)CC(F)(F)F)c1` [Ik-300], the logP was 4.00^b).

Take `CC(C#N)NC(=O)c1cc(NC(=O)c2c(C(F)(F)F)c(C(F)(F)C(F)(F)F)nn2C)ccc1Cl` (centres unmarked) [Ik-292]: the logP was 3.02^b).

As for `CC(CF)NC(=O)c1cc(NC(=O)c2c(C(F)(F)F)c(C(F)(F)C(F)(F)F)nn2C)ccc1Cl` (centres unmarked) [Ik-290], the logP was 3.28^b).

On to `Cn1nc(C(F)(F)C(F)(F)F)c(C(F)(F)F)c1C(=O)Nc1ccc(Cl)c(C(=O)NCc2nc(C(F)(F)F)cs2)c1` [Ik-273], for which the logP is on record as 3.75^b).

As for `Cn1nc(C(F)(F)C(F)(F)F)c(C(F)(F)F)c1C(=O)Nc1ccc(Cl)c(C(=O)NCCc2ccc(Cl)cc2)c1` [Ik-40], the logP was 4.23^b).

Turning to `Cn1nc(C(F)(F)C(F)(F)F)c(C(F)(F)F)c1C(=O)Nc1ccc(Cl)c(C(=O)NCc2ccc(F)cc2F)c1` [Ik-308], the logP is 3.94^b).

With `C[C@H]1C[C@H]1NC(=O)c1cc(NC(=O)c2c(C(F)(F)F)c(C(F)(F)C(F)(F)F)nn2C)ccc1Cl` [Ik-279], the logP is reported as 3.37^b).

As to `CCCC(NC(=O)c1cc(NC(=O)c2c(C(F)(F)F)c(C(F)(F)C(F)(F)F)nn2C)ccc1Cl)C(F)(F)F` (centres unmarked) [Ik-298], the logP was 4.11^b).

In the case of `CCOCCNC(=O)c1cc(NC(=O)c2c(C(F)(F)F)c(C(F)(F)C(F)(F)F)nn2C)ccc1Cl` [Ik-53], the logP is 3.28^b).

For `COC(=O)CNC(=O)c1cc(NC(=O)c2c(C(F)(F)F)c(C(F)(F)C(F)(F)F)nn2C)ccc1Cl` [Ik-34], the logP is 3.04^b).

With `Cn1nc(C(F)(F)C(F)(F)F)c(C(F)(F)F)c1C(=O)Nc1ccc(Cl)c(C(=O)NCc2ccncc2)c1` [Ik-313], the logP is on record as 1.93^b).
